Assay results from US20180110762A1, “Compositions Methods for Treating Chronic Kidney Disease” (Merck Sharp & Dohme Corp, priority 2015, published 2018).

Legend:
[1] = molecular target: T1, Human recombinant integrin α5β1 (Homo sapiens, UniProt P05556+P08648); experiment: Solid phase receptor assay, α5β1 (fibronectin); assay type: binding
T1 construct: purchased R&D Systems
Experimental: The assay was performed according to the method described in International Patent Publication WO 2014/015054 A1 “Beta Amino Acid Derivatives As Integrin Antagonists.” Briefly, 96-well plates were coated overnight with purified fibronectin or vitronectin (R&D Systems) in TBS+ buffer (25 mM Tris 7.4, 137 mM NaCl, 2.7 mM KCl, 1 mM CaCl2, 1 mM MgCl2, 1 mM MnCl2). Compound A was added at different concentrations to recombinant human integrin proteins (R&D Systems) reconstituted in TBS+/0.1% bovine serum albumin, and 50 μL of this mixture were added to the empty wells of the coated plate and incubated for 1-2 hours. After 3 washes, 50 μL of biotinylated antibody (R&D Systems) in TBS+/0.1% bovine serum albumin were added. The procedure continued with three more washes, addition of 50 μL of streptavidin-conjugated horseradish peroxidase (R&D Systems), and incubation for 20 minutes. After 3 more washes, 50 μL of tetramethylbenzidine (TMB) substrate (SIGMA) were added and plates were read after 20 min by colorimetric detection at 650 nm wavelength in an EnVision Multilabel Plate Reader (Perkin Elmer). The concentrations of fibronectin used were: 2 μg/mL for the α5β1 assay and 5 μg/mL for the αvβ1 assay. The concentrations of vitronectin used were: 1 μg/mL for the αvβ3 assay and 0.25 μg/mL for the αvβ5 assay. […]

[2] = system: male obese ZSF1 rats (diabetic nephropathy model); experiment: ZSF1 rat study: plasma triglyceride and cholesterol; assay type: in vivo; conditions: for Plasma Triglyceride / plasma cholesterol levels: obese ZSF1 rats; for plasma cholesterol levels: in mg/dL (unit assumed)
Experimental: (§1) The effects of Compound A (“A”) on renal function, plasma triglycerides, plasma cholesterol, kidney collagen I, kidney collagen III, renal histology, glomerular filtration rate, fibrosis score, and mRNA gene expression (profibrotic genes and integrin β3) were evaluated in male obese ZSF1 rats (a hybrid F1 of Zucker diabetic fatty rat and spontaneously hypertensive heart failure rat; a diabetic nephropathy model) when administered as in-feed for 28 weeks. Sixty obese male ZSF1 rats were randomized to five groups: Obese control (n=12), Compound A 60 mpk (n=12), Compound A 200 mpk (n=12), Compound A 400 mpk (n=12), Enalapril 10 mpk (n=12); Eight lean male ZSF1 rats were used for normal control. Renal functional changes were monitored by blood and urine analysis following in-feed dosing for 28 weeks. Compound exposure was also monitored during the study.

[3] = system: male obese ZSF1 rats (diabetic nephropathy model); experiment: ZSF1 rat study: kidney mRNA expression of profibrotic genes and integrin beta3; assay type: in vivo; conditions: for Collagen I (a1) expression in the kidney / Collagen III (a1) expression in the kidney / Integrin beta3 expression in the kidney / PAI-1 expression in the kidney: obese ZSF1 rats, week 28
Experimental: as §1

postmenopausal women = conditions: Phase II study; cited from earlier work

T1 sequence (P08648 42-995 limits assumed): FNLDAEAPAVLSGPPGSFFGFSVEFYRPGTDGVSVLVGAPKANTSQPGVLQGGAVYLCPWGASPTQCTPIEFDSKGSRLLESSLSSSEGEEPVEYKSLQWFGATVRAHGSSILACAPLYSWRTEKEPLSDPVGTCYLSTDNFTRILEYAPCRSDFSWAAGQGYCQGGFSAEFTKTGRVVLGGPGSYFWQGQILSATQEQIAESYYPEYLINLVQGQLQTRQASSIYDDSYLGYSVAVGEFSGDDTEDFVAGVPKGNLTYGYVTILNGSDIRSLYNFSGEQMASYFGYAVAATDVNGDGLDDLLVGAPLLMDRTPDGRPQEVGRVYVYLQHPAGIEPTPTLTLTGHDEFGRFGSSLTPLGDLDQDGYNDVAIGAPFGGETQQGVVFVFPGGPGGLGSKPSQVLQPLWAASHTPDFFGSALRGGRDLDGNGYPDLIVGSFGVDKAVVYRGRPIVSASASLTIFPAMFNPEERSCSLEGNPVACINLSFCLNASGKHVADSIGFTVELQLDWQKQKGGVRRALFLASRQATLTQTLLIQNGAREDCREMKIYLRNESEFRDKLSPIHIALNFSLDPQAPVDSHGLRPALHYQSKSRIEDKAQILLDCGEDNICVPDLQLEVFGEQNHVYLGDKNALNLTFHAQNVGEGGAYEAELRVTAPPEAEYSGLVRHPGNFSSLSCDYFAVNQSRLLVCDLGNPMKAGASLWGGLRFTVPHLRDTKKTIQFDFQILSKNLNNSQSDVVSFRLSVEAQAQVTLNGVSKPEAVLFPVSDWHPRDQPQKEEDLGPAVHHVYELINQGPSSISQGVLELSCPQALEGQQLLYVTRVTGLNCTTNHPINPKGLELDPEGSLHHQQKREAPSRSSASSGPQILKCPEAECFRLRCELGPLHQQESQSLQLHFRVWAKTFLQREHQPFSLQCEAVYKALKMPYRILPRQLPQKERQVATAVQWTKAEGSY
T1 sequence (P05556 21-728 limits assumed): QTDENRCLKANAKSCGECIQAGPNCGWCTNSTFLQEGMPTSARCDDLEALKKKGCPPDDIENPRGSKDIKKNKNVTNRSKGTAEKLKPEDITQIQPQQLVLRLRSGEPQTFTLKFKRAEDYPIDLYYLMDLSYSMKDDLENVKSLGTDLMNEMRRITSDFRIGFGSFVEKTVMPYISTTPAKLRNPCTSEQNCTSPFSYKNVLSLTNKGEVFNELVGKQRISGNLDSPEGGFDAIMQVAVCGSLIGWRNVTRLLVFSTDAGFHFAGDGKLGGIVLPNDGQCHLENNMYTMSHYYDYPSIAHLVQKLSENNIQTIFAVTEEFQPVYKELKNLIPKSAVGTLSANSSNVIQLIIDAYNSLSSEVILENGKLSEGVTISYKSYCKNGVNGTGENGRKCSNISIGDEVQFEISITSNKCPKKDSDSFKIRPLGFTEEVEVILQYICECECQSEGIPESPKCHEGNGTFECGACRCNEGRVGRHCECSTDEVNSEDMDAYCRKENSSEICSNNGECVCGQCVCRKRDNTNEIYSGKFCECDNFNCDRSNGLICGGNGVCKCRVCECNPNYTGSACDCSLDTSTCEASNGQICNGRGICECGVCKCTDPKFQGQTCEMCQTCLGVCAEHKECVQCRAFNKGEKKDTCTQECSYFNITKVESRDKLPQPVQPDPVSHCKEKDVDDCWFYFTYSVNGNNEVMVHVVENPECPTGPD

IC50 ([1]; α5β1, first of two experiments): 0.0049 µM | IC50 ([1]; α5β1, second of two experiments): 0.0196 µM
Compound: COc1ccc([C@H](CC(=O)O)N2CCN(CCCc3ccc4c(n3)NCCC4)C2=O)cn1 [Compound A, 3-{2-Oxo-3-[3-(5,6,7,8-tetrahydro-[1,8]naphthyridin-2-yl)-propyl]imidazolidin-1-yl}-3 (S)-(6-methoxy-pyridin-3-yl)-propionic acid]
effect on plasma triglyceride levels ([2]; 200 mpk at week 4 and 400 mpk at week 16 and 28): significantly decreased | effect on plasma cholesterol levels ([2]; 200 mpk at week 28 and 400 mpk at week 16, 21, 24, and 28): significantly decreased | plasma TG and cholesterol ([2]; high doses, obese ZSF-1 rats vs untreated obese ZSF-1 rats (summary)): improvement of plasma TG and cholesterol | Plasma Triglyceride ([2]; 60 mpk in-feed, week 2): 2535.3 ± 170.6 mg/dL | plasma cholesterol levels ([2]; 60 mpk in-feed, week 2): 229.3 ± 9.6 | Plasma Triglyceride ([2]; 60 mpk in-feed, week 4): 2807.5 ± 143.4 mg/dL | plasma cholesterol levels ([2]; 60 mpk in-feed, week 4): 262.7 ± 10.5 | Plasma Triglyceride ([2]; 60 mpk in-feed, week 6): 2873.2 ± 116.5 mg/dL | plasma cholesterol levels ([2]; 60 mpk in-feed, week 6): 261.2 ± 9.9 | Plasma Triglyceride ([2]; 60 mpk in-feed, week 8): 3187.9 ± 157.1 mg/dL | plasma cholesterol levels ([2]; 60 mpk in-feed, week 8): 289.1 ± 9.5 | Plasma Triglyceride ([2]; 60 mpk in-feed, week 12): 3138.5 ± 168.9 mg/dL | plasma cholesterol levels ([2]; 60 mpk in-feed, week 12): 315.4 ± 13.2 | Plasma Triglyceride ([2]; 60 mpk in-feed, week 16): 3120.3 ± 191.6 mg/dL | plasma cholesterol levels ([2]; 60 mpk in-feed, week 16): 357.8 ± 13.3 | Plasma Triglyceride ([2]; 60 mpk in-feed, week 21): 2933.4 ± 317.5 mg/dL | plasma cholesterol levels ([2]; 60 mpk in-feed, week 21): 392.9 ± 20.6 | Plasma Triglyceride ([2]; 60 mpk in-feed, week 24): 3093.3 ± 355.2 mg/dL | plasma cholesterol levels ([2]; 60 mpk in-feed, week 24): 448.0 ± 23.8 | Plasma Triglyceride ([2]; 60 mpk in-feed, week 28): 3218.7 ± 427.5 mg/dL | plasma cholesterol levels ([2]; 60 mpk in-feed, week 28): 495.7 ± 29.4 | Plasma Triglyceride ([2]; 60 mpk in-feed, week −2): 2046.8 ± 72.0 mg/dL | plasma cholesterol levels ([2]; 60 mpk in-feed, week −2): 192.0 ± 4.5 | Plasma Triglyceride ([2]; 200 mpk in-feed, week 2): 2111.1 ± 123.5 mg/dL | plasma cholesterol levels ([2]; 200 mpk in-feed, week 2): 205.4 ± 7.8 | Plasma Triglyceride ([2]; 200 mpk in-feed, week 4): 2592.4 ± 206.8 mg/dL | plasma cholesterol levels ([2]; 200 mpk in-feed, week 4): 243.5 ± 9.2 | Plasma Triglyceride ([2]; 200 mpk in-feed, week 6): 2534.6 ± 185.5 mg/dL | plasma cholesterol levels ([2]; 200 mpk in-feed, week 6): 233.7 ± 9.1 | Plasma Triglyceride ([2]; 200 mpk in-feed, week 8): 3325.3 ± 189.8 mg/dL | plasma cholesterol levels ([2]; 200 mpk in-feed, week 8): 289.3 ± 9.3 | Plasma Triglyceride ([2]; 200 mpk in-feed, week 12): 3188.3 ± 191.4 mg/dL | plasma cholesterol levels ([2]; 200 mpk in-feed, week 12): 315.9 ± 11.2 | Plasma Triglyceride ([2]; 200 mpk in-feed, week 16): 2930.4 ± 217.5 mg/dL | plasma cholesterol levels ([2]; 200 mpk in-feed, week 16): 346.8 ± 12.1 | Plasma Triglyceride ([2]; 200 mpk in-feed, week 21): 2717.2 ± 199.8 mg/dL | plasma cholesterol levels ([2]; 200 mpk in-feed, week 21): 366.7 ± 14.1 | Plasma Triglyceride ([2]; 200 mpk in-feed, week 24): 2923.8 ± 267.3 mg/dL | plasma cholesterol levels ([2]; 200 mpk in-feed, week 24): 415.1 ± 19.6 | Plasma Triglyceride ([2]; 200 mpk in-feed, week 28): 2632.8 ± 269.6 mg/dL | plasma cholesterol levels ([2]; 200 mpk in-feed, week 28): 451.9 ± 23.6 | Plasma Triglyceride ([2]; 200 mpk in-feed, week −2): 1965.3 ± 83.6 mg/dL | plasma cholesterol levels ([2]; 200 mpk in-feed, week −2): 189.5 ± 6.6 | Plasma Triglyceride ([2]; 400 mpk in-feed, week 2): 2415.9 ± 119.5 mg/dL | plasma cholesterol levels ([2]; 400 mpk in-feed, week 2): 229.8 ± 6.0 | Plasma Triglyceride ([2]; 400 mpk in-feed, week 4): 2763.1 ± 146.9 mg/dL | plasma cholesterol levels ([2]; 400 mpk in-feed, week 4): 252.3 ± 5.3 | Plasma Triglyceride ([2]; 400 mpk in-feed, week 6): 2715.6 ± 111.4 mg/dL | plasma cholesterol levels ([2]; 400 mpk in-feed, week 6): 238.9 ± 6.6 | Plasma Triglyceride ([2]; 400 mpk in-feed, week 8): 3185.0 ± 191.8 mg/dL | plasma cholesterol levels ([2]; 400 mpk in-feed, week 8): 278.8 ± 9.5 | Plasma Triglyceride ([2]; 400 mpk in-feed, week 12): 3086.5 ± 121.3 mg/dL | plasma cholesterol levels ([2]; 400 mpk in-feed, week 12): 306.4 ± 7.0 | Plasma Triglyceride ([2]; 400 mpk in-feed, week 16): 2648.9 ± 167.8 mg/dL | plasma cholesterol levels ([2]; 400 mpk in-feed, week 16): 304.6 ± 11.1 | Plasma Triglyceride ([2]; 400 mpk in-feed, week 21): 2523.9 ± 220.7 mg/dL | plasma cholesterol levels ([2]; 400 mpk in-feed, week 21): 351.4 ± 13.8 | Plasma Triglyceride ([2]; 400 mpk in-feed, week 24): 2439.5 ± 162.4 mg/dL | plasma cholesterol levels ([2]; 400 mpk in-feed, week 24): 374.7 ± 12.8 | Plasma Triglyceride ([2]; 400 mpk in-feed, week 28): 2215.7 ± 179.3 mg/dL | plasma cholesterol levels ([2]; 400 mpk in-feed, week 28): 391.2 ± 14.7 | Plasma Triglyceride ([2]; 400 mpk in-feed, week −2): 2211.5 ± 117.2 mg/dL | plasma cholesterol levels ([2]; 400 mpk in-feed, week −2): 195.5 ± 5.5 | effect on expression of key profibrotic genes and integrin beta3 in the kidney vs obese vehicle ([3]; 200 mpk or 400 mpk at week 28): significantly decreased | Collagen I (a1) expression in the kidney ([3]; 200 mpk in-feed): 0.79 ± 0.04 | Collagen III (a1) expression in the kidney ([3]; 200 mpk in-feed): 0.60 ± 0.03 | Integrin beta3 expression in the kidney ([3]; 200 mpk in-feed): 0.83 ± 0.03 | PAI-1 expression in the kidney ([3]; 200 mpk in-feed): 0.80 ± 0.03 | Collagen I (a1) expression in the kidney ([3]; 400 mpk in-feed): 0.66 ± 0.02 | Collagen III (a1) expression in the kidney ([3]; 400 mpk in-feed): 0.52 ± 0.01 | Integrin beta3 expression in the kidney ([3]; 400 mpk in-feed): 0.74 ± 0.03 | PAI-1 expression in the kidney ([3]; 400 mpk in-feed): 0.66 ± 0.03 | bone density (postmenopausal women): increase bone density
